# US20030118594A1, “STABLE FORMULATIONS OF MHC-PEPTIDE COMPLEXES” (priority 1995, published 2003)
# Like-named read-outs stand apart in the source and are kept apart here.
# How the values were obtained:
# [1] = system: T-cells; assay: Toxicity of detergents to T-cells; type: cell-based
# Experimental: A number of detergents were studied for their ability to solubilize human HLA-DR2 and MHC-peptide complexes. In addition the complexes prepared in the detergents were assayed for activity. A summary of structural and physical characteristics of various detergents used for solubilization of HLA-DR2 is presented in FIG. 1.
# [2] = Aggregation assay by size-exclusion HPLC and SDS-PAGE; type: physicochemical; conditions: DM concentration below 0.05%, FIG. 4, 5
# Experimental: Three non-ionic detergents (DM, OG, and Tween-80) were tested. The experiments were carried out as generally described in U.S. Pat. Nos. 5,130,297, 5,194,425, 5,260,422 and 5,284,935, all of which are incorporated herein by reference. Briefly, HLA-DR2 was purified from EBV-transformed lymphoblastoid cells [GM03107] obtained from the National Institute of General Medical Sciences human genetic mutant cell repository (Corinell Institute of Medical Research, NJ.). A triton X-100 cell lysate was prepared and applied to a L243 coupled sepharose-4B column and the bound DR2 was eluted in phosphate buffer containing 0.05% n-dodecyl β-D-maltoside (DM) detergent at pH 11.3. Fractions were immediately neutralized with 20% monobasic phosphate and the DR2 pool was collected through a DEAE ion exchange column in 20 mM phosphate buffer containing 0.5 M NaCl and 0.05% DM, pH 6.0. The flow through purified protein solution from the DEAE column was neutralized with 10% tribasic sodium phosphate, filtered through a 180 kD membrane and concentrated to 1 mg/ml. The final DR2 preparation was characterized by 13.5% SDS polyacrylamide gel electrophoresis followed by silver staining.
# To prepare the DR2-peptide complex, purified DR2 was dialyzed against 100 mM citrate buffer pH 6.0 containing 0.05% DM for 24 hours at 4° C. prior to the addition of MBP(83-102)Y^83 peptide. […]
# [3] = system: HLA-DR2; assay: Occupancy of MHC molecules with peptide (loading); type: binding, human; conditions: DR2 and MBP(83-102)Y^83 complexes prepared in the named detergent
# Experimental: To prepare the DR2-peptide complex, purified DR2 was dialyzed against 100 mM citrate buffer pH 6.0 containing 0.05% DM for 24 hours at 4° C. prior to the addition of MBP(83-102)Y^83 peptide. The reaction mixture was incubated at 37° C. for 96 hours and free peptide was removed by Sephacryl S200 gel filtration.
# As noted in the figure, the occupancy of the MHC molecules (i.e., proportion of the molecules complexed with peptide) was 90% in DM, 40% in octylglucoside and 76% in Tween-80).
# [4] = system: mouse; assay: GLP Toxicology: Acute Range-finding; type: in vivo; conditions: i.v., 400 ug/kg, bolus
# Experimental: (§1) Safety and toxicity studies were carried out for the intravenous administration of dodecyl-β-D-maltoside in various animal models.
# [5] = system: mouse; assay: GLP Toxicology: Subacute - full histo; type: in vivo; conditions: i.v., QD14
# Experimental: as §1
# [6] = system: mouse; assay: Safety Pharmacology: Neuropharm profile; type: in vivo; conditions: i.v., bolus
# Experimental: as §1
# [7] = system: rat; assay: Safety Pharmacology: Diuretic Assay; type: in vivo; conditions: i.v., bolus
# Experimental: as §1
# [8] = system: mouse; assay: Safety Pharmacology: Barbit Sleep Potent; type: in vivo; conditions: i.v., bolus
# Experimental: as §1
# [9] = system: dog; assay: Safety Pharmacology: Cardiovasc Effects; type: in vivo; conditions: i.v.
# Experimental: as §1
# [10] = system: various animal models; assay: Safety and toxicity studies, intravenous administration in various animal models; type: in vivo; conditions: i.v. administration at various tested doses, summary of Table 1
# Experimental: as §1
compound,measurement,setting,value
C[C@H](CCC(=O)NCCC[N+](C)(C)CCCS(=O)(=O)[O-])[C@H]1CC[C@H]2[C@@H]3[C@H](O)C[C@@H]4C[C@H](O)CC[C@]4(C)[C@H]3C[C@H](O)[C@]12C [CHAPS],toxicity to T-cells,[1]; detergents for solubilization of HLA-DR2,toxic to T-cells
"CCCCCCCCCCCCO[C@@H]1O[C@H](CO)[C@@H](O[C@H]2O[C@H](CO)[C@@H](O)[C@H](O)[C@H]2O)[C@H](O)[C@H]1O [DM, dodecyl β-D maltoside]",aggregation level of DR2,[2],increased aggregation level of DR2
same,occupancy of the MHC molecules (proportion of the molecules complexed with peptide),[3],90%
same,"Results, Acute Range-finding",[4],poss kindey cortical
same,"Results, Subacute - full histo",[5]; 4 ug/kg,No Eff @ necr/clin-path
same,"Results, Subacute - full histo",[5]; 40 ug/kg,No Effects
same,"Results, Subacute - full histo",[5]; 400 ug/kg,D14 Spleen wt slightly
same,"Results, Neuropharm profile",[6]; 10 ug/kg,No Effects
same,"Results, Neuropharm profile",[6]; 100 ug/kg,No Effects
same,"Results, Diuretic Assay",[7]; 10 ug/kg,No Effects
same,"Results, Diuretic Assay",[7]; 100 ug/kg,No Effects
same,"Results, Barbit Sleep Potent",[8]; 10 ug/kg,No Effects
same,"Results, Barbit Sleep Potent",[8]; 100 ug/kg,No Effects
same,"Results, Cardiovasc Effects","[9]; 10 ug/kg, bolus",No Effects
same,"Results, Cardiovasc Effects",[9]; up if NOEL to 100 ug/kg,No Effects
same,toxic effects,[10],no toxic effects
CCCCCCCC/C=C\CCCCCCCC(=O)OCCOCC(OCCO)C1OCC(OCCO)C1OCCO (stereo not shown) [Tween-80],occupancy of the MHC molecules (proportion of the molecules complexed with peptide),[3],76%
"CCCCCCCCO[C@@H]1O[C@H](CO)[C@@H](O)[C@H](O)[C@H]1O [octylglucoside, octyl glucoside]",occupancy of the MHC molecules (proportion of the molecules complexed with peptide),[3],40%
Pluronic F-127,toxicity to T-cells,[1],toxic to T-cells
